Measured values as given in the NIST ThermoML archive (doi:10.1021/je900218z).
Several values for one entry are separate records, joined by “and”; a condition that tells them apart may be missing. Identical values can stand only once. Numbers after ± are expanded uncertainties.

Assay: mn = molality of the nth substance listed, in mol/kg
Conditions: 298.15 K, 101 kPa, Liquid

O=S(=O)([O-])[O-].[Na+].[Na+] [sodium sulfate] + O
Conditions | mass density
m1 = 0.2 | 1021.93 ± 0.32 kg/m3
m1 = 0.4999 | 1057.3 ± 0.4 kg/m3 and 1057.32 ± 0.4 kg/m3 and 1057.31 ± 0.4 kg/m3
m1 = 0.6999 | 1079.92 ± 0.46 kg/m3 and 1079.94 ± 0.46 kg/m3 and 1079.93 ± 0.46 kg/m3
m1 = 0.9868 | 1111.12 ± 0.54 kg/m3
m1 = 0.9979 | 1112.28 ± 0.54 kg/m3
m1 = 0.9999 | 1112.48 ± 0.54 kg/m3
m1 = 1.196 | 1133.04 ± 0.59 kg/m3
m1 = 1.2 | 1133.46 ± 0.59 kg/m3 and 1133.45 ± 0.59 kg/m3
